Article PMC5988308, “Rhodanine derivatives as potent anti-HIV and anti-HSV microbicides” (PLoS ONE, 2018)
Values after ≈ are worked out from the molar mass of the structure shown. Values joined by “and” are separate entries in the source; they are usually repeats but may differ in a detail not shown here. Identical values can stand only once. Like-named read-outs stand apart in the source and are kept apart here.

How the values were obtained:
[1] = Parallel Artificial Membrane Permeability Assay (PAMPA); format: in vitro ADME; settings: pH 7.4, 5 h
Protocol: Donor solution (0.5 mM) was prepared by diluting 1 mM dimethylsulfoxide (DMSO) compound stock solution using phosphate buffer (pH 7.4, 0.025 M). Filters were coated with 5 μL of a 1% (w/v) dodecane solution of L-α-phosphatidylcholine. Donor solution (150 μL) was added to each well of the filter plate. To each well of the acceptor plate were added 300 μL of solution (50% DMSO in phosphate buffer). All compounds were tested in three different plates on different days. The sandwich was incubated for 5 h at room temperature under gentle shaking. After the incubation time, the plates were separated, and samples were taken from both receiver and donor sides and analyzed using UV/HPLC-MS gradient method above reported. Permeability (Papp) for PAMPA, were calculated according to the following equation, obtained from Wohnsland and Faller and Sugano [37] equation with some modification in order to obtain permeability values in cm s-1, Papp=VDVA/(VD+VA)At−ln(1−r) where VA is the volume in the acceptor well, VD is the volume in the donor well (cm^3), A is the “effective area” of the membrane (cm^2), t is the incubation time (s) and r the ratio between drug concentration in the acceptor and equilibrium concentration of the drug in the total volume (VD+VA). Drug concentration is estimated by using the peak area integration.

[2] = tested on: HSV-2; test: HSV-2 plaque reduction assay on Vero cells; format: cell-based; settings: for EC50 / EC90: Human alphaherpesvirus 2, Vero; for EC50: read-out: HSV-2 EC50; for EC90: read-out: HSV-2 EC90; for SI (CC50/EC50), HSV-2: Vero cells
Protocol: Clinical isolates of HSV-1 and HSV-2 were kindly provided by Prof. M. Pistello, University of Pisa, Italy. HSV-1 and HSV-2 strains were propagated and titrated by plaque assay on Vero cells. A HSV-2 strain with phenotypic resistance to acyclovir was generated by serial passage in the presence of increasing concentrations of acyclovir, as previously described.
The effect of the rhodanine derivatives on HSV infection was evaluated by plaque reduction assay. Vero cells were pre-plated 24 h in advance in 24-well plates at a density of […]. Increasing concentrations of compounds were mixed with HSV-2 (MOI 0.001 pfu/cell) or HSV-2 acyclovir resistant (MOI 0.001) or HSV-1 (MOI 0.0005) or and incubated for 1 hour at 37°C. The mixtures were subsequently added to the cells, which were then incubated at 37°C for 2 h. The virus inoculum was then removed and the cells washed and overlaid with a medium containing 1.2% methylcellulose (Sigma). After further incubation at 37°C for 24 h (HSV-2 and HSV-2 R Acy) or 48 h (HSV-1), cells were fixed and stained with 0.1% crystal violet in 20% ethanol and viral plaques counted. The effective concentration producing 50% reduction (EC50) and 90% reduction (EC90) in plaque formation was determined using Prism software by comparing drug-treated with wells treated with medium and solvent. The selectivity index (SI) was calculated by dividing the CC50 by the EC50 value.
All results are presented as the mean values from three independent experiments. The EC50 values for inhibition curves were calculated by regression analysis using the software GraphPad Prism (GraphPad Software, San Diego, California, U.S.A.) by fitting a variable slope-sigmoidal dose–response curve. Acyclovir was purchased from Sigma Aldrich (Milan, Italy).

[3] = tested on: HIV-1 NL4.3 (CXCR4-tropic strain); test: Antiviral activity on TZM-bl cells infected with HIV-1 NL4.3 (CPRG assay); format: cell-based; settings: TZM-bl cells
Protocol: After 48 h of incubation, the medium was removed and viral infection was quantified using a β-galactosidase (CPRG) assay (Roche). Twenty thousand TZM-bl cells/well were seeded in 96-well plates in complete DMEM supplemented with 30 μg/mL DEAE-dextran (Sigma-Aldrich). […] Vehicle (0.1% dimethyl sulfoxide [DMSO])-treated cells served as a negative control. […] After 2 days, viral infection was quantified using a CPRG assay (Roche). […] To evaluate the cell toxicity of the compounds, the metabolic XTT [2,3-bis-(2-methoxy-4-nitro-5-sulfophenyl)-2H-tetrazolium-5-carboxanilide] test (Sigma-Aldrich) was performed according to the manufacturer’s instructions.

[4] = Aqueous (thermodynamic) solubility; format: physicochemical; settings: thermodynamic from solid, water, 20°C, read-out: Water Solub.
Protocol: Each solid compound (1 mg) was added to 1 mL of water. Each sample was mixed at 20°C, in a shaker water bath for 24 h. The resulting suspension was filtered through a 0.45 μm nylon filter (Acrodisc). The concentration of solubilized compounds weres determined by UV/LC-MS (performed in triplicate) by comparison with the appropriate calibration curve that was obtained from samples of the compound dissolved in methanol at different concentrations.

[5] = target: bovine serum albumin (BSA) (Bos taurus, UniProt P02769); test: Albumin binding fluorimetric assay, BSA; settings: fluorescence quenching, 10 μM BSA
Protocol: The binding of each compounds to HSA (human serum albumin) and BSA (bovine serum albumin) were monitored by fluorescence spectroscopy in order to determine the dissociation constant (Kd). A quantitative analysis of the potential interaction was performed by fluorimetric analysis using 96 multiwell plates: in each well a fixed concentration of HSA or BSA (10μM in phosphate buffer 1 mM), was added with different amounts of tested compound (0.1μM to 500μM by stock solutions in DMSO). Plates were gently shacked and after allowing 30 minutes at room temperature for equilibration, after excitation at 295nm, spectra were recorded from 300 to 400 nm with a Perkin Elmer EnVision Multilabel Reader 2014 spectrofluorimeter, spectra were acquired with EnVision Manager ver.1.13 software. The obtained fluorescence quenching percentages were plotted against drug concentrations and the relative Kd values were obtained using GraphPad software (version 6.0).

[6] = Vero cell viability (MTS assay); format: cell-based; settings: African green monkey
Protocol: African green monkey fibroblastoid kidney cells (Vero, ATCC CCL-81) were grown as monolayers in Eagle's minimal essential medium (MEM) (Gibco/BRL, Gaithersburg, MD) supplemented with 10% heat inactivated fetal calf serum (FCS) and 1% antibiotic-antimycotic solution (Zell Shield, Minerva Biolabs GmbH, Berlin, Germany).
Cell viability was measured using the MTS [3-(4,5-dimethylthiazol-2-yl)-5-(3-carboxymethoxyphenyl)-2-(4-sulfophenyl)-2H-tetrazolium] assay. Cell cultures were seeded in 96-well plates were incubated with different concentrations of compounds in triplicate under the same experimental conditions described for the antiviral assays. Cell viability was determined using the CellTiter 96 Proliferation Assay Kit (Promega, Madison, WI, USA) according to the manufacturer's instructions. Absorbances were measured using a Microplate Reader (Model 680, BIORAD) at 490 nm. The effect on cell viability at different concentrations of the compound was expressed as a percentage, by comparing absorbances of treated cells with those of cells incubated with culture medium and equal volumes of vehicle.

[7] = Human immunodeficiency virus 1, NL43, TZM-bl, pre-incubation in complete medium containing fetal bovine serum (FBS), read-out: NL4-3 EC50 a
[8] = Human immunodeficiency virus 1, NL43, TZM-bl, pre-incubation with virus without serum, read-out: NL4-3 EC50
[9] = Vero cells, HSV-2 assay conditions, read-out: Citotoxicity (Vero cells) CC50

bovine serum albumin (BSA), sequence (P02769 25-607): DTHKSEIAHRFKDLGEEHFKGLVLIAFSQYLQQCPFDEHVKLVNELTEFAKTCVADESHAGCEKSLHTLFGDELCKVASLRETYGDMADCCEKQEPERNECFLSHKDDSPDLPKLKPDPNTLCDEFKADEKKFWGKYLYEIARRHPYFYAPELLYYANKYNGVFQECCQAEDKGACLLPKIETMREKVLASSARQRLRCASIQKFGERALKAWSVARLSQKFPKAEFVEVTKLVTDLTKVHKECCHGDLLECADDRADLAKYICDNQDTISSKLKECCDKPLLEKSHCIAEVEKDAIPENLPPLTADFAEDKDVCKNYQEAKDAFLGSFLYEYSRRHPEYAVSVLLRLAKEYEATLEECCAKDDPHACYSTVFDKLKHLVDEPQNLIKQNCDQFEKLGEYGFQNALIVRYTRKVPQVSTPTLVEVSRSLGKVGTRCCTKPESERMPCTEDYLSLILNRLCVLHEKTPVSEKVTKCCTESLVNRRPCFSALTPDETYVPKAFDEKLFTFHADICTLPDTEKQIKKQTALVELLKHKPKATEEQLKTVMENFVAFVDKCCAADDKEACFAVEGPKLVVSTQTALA

SMILES | Papp [1] | EC50 [2] | EC90 [2] | EC50 [3, 7] | EC50 [3, 8] | EC50 ([3]; Human immunodeficiency virus 1, TZM-bl, pre-incubation with FBS, read-out: EC50 against NL4.3 strain in presence of serum) | EC50 ([3]; pre-incubation with virus without serum, read-out: NL4-3 EC50) | solubility at 24 h [4] | Kd [5] | CC50 [6, 9] | SI (CC50/EC50), HSV-2 [2] | CC50 ([6]; Vero cell CC50 (HSV-2 acyclovir resistant rows)) | CC50 ([6]; Vero cells, HSV-1 assay conditions, read-out: Vero cell CC50 (HSV-1))
O=C(O)c1ccc(-c2ccc(/C=C3\SC(=S)N(Cc4ccc(F)cc4)C3=O)o2)cc1O [Compound 1] | 1.28 1·10^-6cm/sec | 168 ± 143 nM | 2110 ± 918 nM | 2951 ± 15 nM | ~50 nM | 3000 nM | 49.5 ± 2 nM | 0.88 ± 0.1 µg/mL (≈ 1.93 µM) | 680 ± 100 nM | 224 ± 78.5 µM |  |  | 
O=C(O)c1ccc(-c2ccc(/C=C3\SC(=S)N(Cc4ccc(Cl)cc4)C3=O)o2)cc1O [Compound 2] | 1.26 1·10^-6cm/sec | 11.9 ± 5.73 nM | 481 ± 299 nM | 190 ± 9 nM | 4 nM |  |  | 0.52 ± 0.13 µg/mL (≈ 1.1 µM) | 630 ± 100 nM | 112 ± 11.6 µM | 9400 and 9403 | 112 ± 11.6 µM | 98 ± 23.1 µM
O=C(O)c1ccc(-c2ccc(/C=C3\SC(=S)N(CCc4ccc(F)cc4)C3=O)o2)cc1O [Compound 9a, (Z)-4-(5-((3-(4-fluorophenethyl)-4-oxo-2-thioxothiazolidin-5-ylidene)methyl)furan-2-yl)-2-hydroxybenzoic acid] | 0.4 1·10^-6cm/sec | 345 ± 168 nM | 426 ± 56.3 nM | 204 ± 12 nM | 5.4 nM |  |  | 0.54 ± 0.08 µg/mL (≈ 1.15 µM) | 1080 ± 200 nM | > 300 µM | >869 |  | 
Cc1ccc(CCN2C(=O)/C(=C/c3ccc(-c4ccc(C(=O)O)c(O)c4)o3)SC2=S)cc1 [Compound 9b, (Z)-2-hydroxy-4-(5-((3-(4-methylphenethyl)-4-oxo-2-thioxothiazolidin-5-ylidene)methyl)furan-2-yl)benzoic acid] | 2.32 1·10^-6cm/sec | 4.89 ± 1.59 nM | 57.8 ± 22.6 nM | 457 ± 5 nM | 23 ± 4 nM |  |  | 0.1 ± 0.08 µg/mL (≈ 0.215 µM) | 1550 ± 300 nM |  | 2209 |  | 
O=C(O)c1ccc(-c2ccc(/C=C3\SC(=S)N(CCCc4ccccc4)C3=O)o2)cc1O [Compound 9c, (Z)-2-hydroxy-4-(5-((4-oxo-3-(3-phenylpropyl)-2-thioxothiazolidin-5-ylidene)methyl)furan-2-yl)benzoic acid] | 1.23 1·10^-6cm/sec | 52 ± 21.2 nM | 422 ± 225 nM | 457 ± 11 nM | 15.3 ± 2 nM |  |  | 0.3 ± 0.07 µg/mL (≈ 0.644 µM) | 1050 ± 100 nM | 205 ± 30.1 µM | 3936 |  | 
CCc1ccc(CCN2C(=O)/C(=C/c3ccc(-c4ccc(C(=O)O)c(O)c4)o3)SC2=S)cc1 [Compound 9d, (Z)-4-(5-((3-(4-ethylphenethyl)-4-oxo-2-thioxothiazolidin-5-ylidene)methyl)furan-2-yl)-2-hydroxybenzoic acid] | 1.50 1·10^-6cm/sec | 28.7 ± 7.11 nM | 140 ± 61.2 nM | 228 ± 10 nM | 23.4 ± 3 nM |  |  | 0.25 ± 0.09 µg/mL (≈ 0.521 µM) | 990 ± 900 nM | 16.9 ± 4.31 µM | 600 and 604.3 |  | 
O=C(O)c1ccc(-c2ccc(/C=C3\SC(=S)N(c4ccc(F)c(Cl)c4)C3=O)o2)cc1O [Compound 9e, (Z)-4-(5-((3-(3-chloro-4-fluorophenyl)-4-oxo-2-thioxothiazolidin-5-ylidene)methyl)furan-2-yl)-2-hydroxybenzoic acid] | 0.92 1·10^-6cm/sec | 50.3 ± 10.5 nM | 206 ± 85.5 nM | 420 ± 7 nM | 30 ± 1 nM |  |  | 0.72 ± 0.12 µg/mL (≈ 1.51 µM) | 1070 ± 900 nM | > 100 µM | >1988 |  | 
O=C(O)c1ccc(-c2ccc(/C=C3\SC(=S)N(Cc4ccc(Cl)c(F)c4)C3=O)o2)cc1O [Compound 9f, (Z)-4-(5-((3-(4-chloro-3-fluorobenzyl)-4-oxo-2-thioxothiazolidin-5-ylidene)methyl)furan-2-yl)-2-hydroxybenzoic acid] | 0.87 1·10^-6cm/sec | 26.4 ± 11.1 nM | 153 ± 159 nM | 570 ± 9 nM | 17 ± 2 nM |  |  | 0.73 ± 0.14 µg/mL (≈ 1.49 µM) | 1090 ± 900 nM | 7.87 ± 2.98 µM | 298 |  | 
